Measured values published in patent publication US6518012B1, “Method for regulating the expression of MHC antigens and CD40 by inhibitors of histone deacetylation” (Health Research, Inc., priority 1999, dated 2003).

Experiments:
[1] = test system: class II transactivator (CIITA) mRNA; assay: CIITA mRNA by standard PCR and real-time PCR in human cell lines JAR and SK-N-MC; type: cell-based; settings: for CIITA mRNA fold change: MC cells, real time PCR up to 60 cycles, 100 nM TSA 24 hr, NaBu 1 mM 48 hr
Description: (§1) To determine the effect of DAIs on HLA-DRα mRNA, cytoplasmic RNA was isolated from untreated and treated human trophoblast cell line JAR using standard techniques (RNeasy System from Qiagen). Standard PCR was performed using primers for DR and CIITA (Murphy et al., 1998, Reprod Dev., Chin et al., 1994, Immunity 1:687-697). Other primers used included human and mouse GAPDH (Clontech) and forward primer 5′-[…]-3′ (SEQ ID NO:25) and reverse primer 5′-[…]-3′ (SEQ ID NO:26) for mouse CIITA. PCR products were amplified with GOLD Taq for 10 min at 95° C., then 95° C. for 30 sec, 60° C. for 60 sec (25-45 cycles), then an extension at 60° C. for 10 min.
Oligonucleotide primers and TaqMan 5′-6-FAM and 3′-TAMRA-labeled probes were synthesized in the RPCI Biopolymer Facility. Primer and probe sequences are listed under Sequence Listing and also in FIG. 9. Sequences were designed using standard software (PrimerExpress software, PE Biosystems) except for human GAPDH.
Realtime PCR reactions contained TaqMan Universal PCR Master Mix (PE Biosystems), primers at 300 nM, and probes at optimal concentrations (150-225 nM depending on gene). Reactions were carried out on an ABI PRISM 7700 Sequence Detection System (PE Biosystems). Cycling conditions were 50° C. for 2 min, 95° C. for 10 min, then 60 cycles of 95° C. for 15 sec, 60° C. for 1 min. PCR samples were run in triplicate. The detection system and quantitative PCR was carried out as described by Williamson et al. (1995, Genet Res. 65:83-93). The threshold cycle number CT corresponded to the cycle number, at which the fluorescent emission reaches 10 standard deviations above the mean fluorescent emission, measured during the early ‘baseline’ cycles of the PCR. The CT values for triplicates were averaged and normalized to GAPDH levels. […] Assuming reverse transcription efficiencies were approximately the same for each sample, relative amounts of mRNA using the comparative CT method. Fold changes in mRNA levels were calculated as 2^x where x=the difference between normalized CT values of the control and experimental samples.
[…] RNA was isolated and real time quantitative RT-PCR was carried out. The fold increase in mRNA over the control was calculated.

CIITA mRNA = CIITA mRNA by RT-PCR and real-time PCR in mouse tumor cells Colon 26 and J558; type: cell-based; settings: for CIITA fold increase / expression of CIITA: Colon 26; for CIITA fold increase: real-time PCR; for expression of CIITA: standard RT-PCR at 35 cycles; for CIITA mRNA activation: titration with different concentrations of TSA for 12 hours, RT-PCR and real-time PCR
Description: as §1
In order to obtain more quantitative information on fold changes in DR and CIITA after treatment with the deacetylase inhibitors, a real time fluorescence technique capable of quantitating low copy numbers of transcripts was carried out as follows. Oligonucleotide primers and TaqMan 5′-6-FAM and 3′-TAMRA-labeled probes were synthesized in the RPCI Biopolymer Facility. Primer and probe sequences are listed under Sequence Listing and also in FIG. 9. Sequences were designed using standard software (PrimerExpress software, PE Biosystems) except for human GAPDH.
Realtime PCR reactions contained TaqMan Universal PCR Master Mix (PE Biosystems), primers at 300 nM, and probes at optimal concentrations (150-225 nM depending on gene). Reactions were carried out on an ABI PRISM 7700 Sequence Detection System (PE Biosystems). Cycling conditions were 50° C. for 2 min, 95° C. for 10 min, then 60 cycles of 95° C. for 15 sec, 60° C. for 1 min. PCR samples were run in triplicate. The detection system and quantitative PCR was carried out as described by Williamson et al. (1995, Genet Res. 65:83-93). The threshold cycle number CT corresponded to the cycle number, at which the fluorescent emission reaches 10 standard deviations above the mean fluorescent emission, measured during the early ‘baseline’ cycles of the PCR. The CT values for triplicates were averaged and normalized to GAPDH levels. […] In such cases, in order to calculate a minimum fold change for other samples in the same group, the CT value was arbitrarily set at 40. […] Assuming reverse transcription efficiencies were approximately the same for each sample, relative amounts of mRNA using the comparative CT method. Fold changes in mRNA levels were calculated as 2^x where x=the difference between normalized CT values of the control and experimental samples.
To determine if the effect of DAIs on MHC class II was manifested in other tumors and in different species, the effect of TSA was tested on four commonly used mouse tumor models: the SaI fibrosarcoma, the Colon 26 adenocarcinoma, the J558 plasmacytoma and the P815 mastocytoma. TSA induced class II in all four mouse tumors examined, while the effects of IFNγ were variable (FIG. 4). Data presented for each cell line represents optimal incubation time and concentration of TSA and is compared with 100 U/ml of IFNγ at the same time point. Numbers over bars represents fold changes. […] Colon 26 and J558 that differed strikingly in their reactivity to IFNγ were selected for further evaluation. RT-PCR and real time PCR was used to examine induction of CIITA and IAα by TSA and IFNγ. A20, a constitutively positive B cell line was used as a positive control. The results are shown in FIGS. 5A-D. The numbers over bars represent fold changes. […] Since the classical IFNγ inducible genes IRF-1 and GBP as well as MHC class I mRNA were not induced by IFNγ in J558 (data not shown), this cell line may have a signaling defect in the IFNγ pathway. Unexpectedly however, and unlike either the MC or Colon 26 cells, TSA induced both CIITA (102-fold) and Iα (537-fold) in J558 as shown in FIGS. 5B and 5D.

[2] = test system: MHC class II protein on the cell surface; assay: Cell surface MHC class II protein by flow cytometry on SK-N-MC; type: cell-based, human; settings: for expression of MHC class II protein on the cell surface: flow cytometry, 50 nM TSA for 48 hours, IFNγ 100 U/ml same time
HLA-DRα mRNA = HLA-DRα mRNA by standard PCR and real-time PCR in human cell lines JAR and SK-N-MC; type: cell-based; settings: for fold increase in expression of DR: MC cells, real time PCR, 100 nM TSA 24 hr, NaBu 1 mM 48 hr, IFNγ any concentration or time point; for levels of mRNA for HLA-DRα (DR): SK-N-MC, RT-PCR, 100 nM TSA 24 hours, 1 mM NaBu 48 hours, IFNγ
[3] = SK-N-MC, routine RT-PCR at 35 cycles, 100 nM TSA 24 hours, 1 mM NaBu 48 hours, IFNγ

Compound | CIITA transcription ([1]; JAR, standard PCR at 35 cycles, 100 nM or 250 nM TSA or 1 mM sodium butyrate) | CIITA mRNA fold change ([1]; IFNγ) | CIITA transcription [1, 3] | CIITA fold increase (CIITA mRNA) | expression of CIITA (CIITA mRNA) | CIITA fold induction (CIITA mRNA; J558, RT-PCR and real-time PCR (FIGS. 5B and 5D)) | CIITA mRNA activation (CIITA mRNA; J558) | cells positive for class II expression ([2]; TSA concentration used in FIG. 8 (50 nM for 48 hours)) | expression of MHC class II protein on the cell surface [2] | fold increase in expression of DR (HLA-DRα mRNA) | levels of mRNA for HLA-DRα (DR) (HLA-DRα mRNA)
CC(/C=C/C(=O)NO)=C\[C@@H](C)C(=O)c1ccc(N(C)C)cc1 [TSA, Trichostatin A] | undetectable | no increase | undetectable | absence | not detected | 102 fold | induced | 29% | significantly induced | 108 fold | substantial increase
IFNγ: gamma-interferon, cytokine used as comparator at 100 U/ml | – | 4 fold | not detected | 20 fold | induced | – | failed to activate | – | did not induce | did not stimulate | cannot be induced
